These results are taken from EP0853484B1, “NOVEL MU OPIOID RECEPTOR LIGANDS: AGONISTS AND ANTAGONISTS” (priority 1995, dated 1996).

Non-standard residues stand in square brackets, D forms with d. No end group written: not given here.

In one test the target is T1, κ receptors (Cavia porcellus, UniProt P41144).
T1 construct: tissue homogenates prepared from guinea pig brains (cortex and cerebellum); tissue Harlan Bioproducts for Science; host or cells: guinea pig brain (cortex and cerebellum) homogenate
T1 sequence (P41144 whole entry): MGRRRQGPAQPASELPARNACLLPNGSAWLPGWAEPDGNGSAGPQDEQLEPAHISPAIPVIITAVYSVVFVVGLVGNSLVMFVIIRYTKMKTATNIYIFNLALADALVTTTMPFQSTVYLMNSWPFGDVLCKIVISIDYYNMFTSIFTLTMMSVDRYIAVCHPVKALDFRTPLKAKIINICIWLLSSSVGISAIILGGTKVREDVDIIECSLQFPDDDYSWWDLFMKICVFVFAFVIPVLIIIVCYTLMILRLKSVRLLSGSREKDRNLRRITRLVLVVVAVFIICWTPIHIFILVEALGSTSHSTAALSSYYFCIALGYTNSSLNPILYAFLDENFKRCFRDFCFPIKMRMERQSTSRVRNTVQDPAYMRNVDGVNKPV
Nature of the test: Radioreceptor assay selective for κ receptors ([3H]-U69,593, guinea pig brain homogenates). The settings on record: ratio of κ IC50 to µ IC50. It is filed as binding. As for the experimental part:
Assays selective for κ receptors were carried out using [^3H]-U69,593 (3 nM, specific activity 62 Ci/mmol) as the radioligand and tissue homogenates prepared from guinea pig brains (cortex and cerebellum) using Tris buffer containing 100 µM PMSF, 5 mM MgCl2 and 1 mg/ml BSA, pH 7.4. Sample tubes were incubated for 2.5 hr.

Another test concerns the target T2, δ receptors (Rattus norvegicus, UniProt P33533).
T2 construct: performed using rat brain homogenates as above; tissue Harlan Bioproducts for Science; host or cells: rat brain crude membrane homogenate
Nature of the test: Radioreceptor assay selective for δ receptors ([3H]-naltrindole, rat brain homogenates). It counts as binding. The settings on record: ratio of δ IC50 to µ IC50. As for the experimental part:
Radioreceptor assays selective for δ receptors were performed using rat brain homogenates as above and [^3H]-naltrindole (0.5 nM, specific activity 34.7 Ci/mmol) as radioligand in Tris buffer containing 100 µM phenylmethylsulfonyl fluoride (PMSF), 5 mM MgCl2 and 1 mg/ml bovine serum albumin (BSA), pH 7.4. Samples were incubated for 2.5 hr. Standard curves were prepared using 0.10-3200 nM [^3H]-D-Pen2, Pen5]-enkephalin ([^3H]-DPDPE).

The subject of the next test is MU RECEPTOR
In words: Agonist or antagonist activity by either the adenylyl cyclase assay or the GPI assay (not stated which).

T2 sequence (P33533 whole entry): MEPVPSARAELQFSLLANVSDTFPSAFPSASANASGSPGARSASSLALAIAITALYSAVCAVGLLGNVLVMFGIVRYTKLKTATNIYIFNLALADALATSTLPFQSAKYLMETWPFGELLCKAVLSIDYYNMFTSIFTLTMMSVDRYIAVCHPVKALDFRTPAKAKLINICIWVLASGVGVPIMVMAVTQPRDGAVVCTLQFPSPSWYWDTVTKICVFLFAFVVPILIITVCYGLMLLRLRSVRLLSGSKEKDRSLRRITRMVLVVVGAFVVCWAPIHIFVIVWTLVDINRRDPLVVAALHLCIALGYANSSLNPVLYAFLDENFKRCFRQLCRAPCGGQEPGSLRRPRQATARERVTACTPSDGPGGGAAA
Description for MU RECEPTOR: An adenylyl cyclase assay using human SH-SY5Y neuroblastoma cell line membranes was used to rapidly determine the opioid agonists or antagonist properties of individual peptides. Opioid agonist inhibit adenylyl cyclase activity, resulting in reduced levels of cyclic AMP.
SH-SY5Y membranes were incubated in a final volume of 100 µl of 40 mM HEPES, pH 7.7, containing 15 units of creatine phosphokinase, 20 mM phosphocreatine, 1mM 1,10-o-phenanthroline, 60 µM isobutylmethylxanthine (IBMX), 50 µM ATP, 50 µM GTP, 3 mM MgCl2 and 100 mM NaCl. Each of the agonists and antagonists tested were included at final concentrations of 100 µM and 500 µM, respectively. The reaction was initiated by the addition of 36 µg of membrane protein. After 15 min at 30°C, the reaction was stopped by the addition of 100 µl of cold 4.5% perchloric acid. The samples were neutralized by the addition 40 µl of cold 30% potassium bicarbonate. Finally, the membranes were centrifuged at 12000 x g for 4 min at 4°C in a microcentrifuge. The amount of cyclic AMP present in 100 µl of-the supernatant, equivalent to the cyclic AMP produced by 15 µg of membrane protein, was determined using a cyclic AMP kit (Diagnostic Products, Los Angeles, CA). […] The final supernatants were counted in 10 ml of Ecolite (+) scintillation fluid (ICN Pharmaceuticals, Covina, CA).

Regarding “[D-Ala^2,MePhe^4,Gly-ol^5]enkephalin [DAMGO]”, the κ/µ at κ receptors is listed as 844. For the same substance, at δ receptors, the δ/µ was found to be 253.

“[dI][dM][dT][dW]G[dP]-NH2 [SEQ ID NO. 130]”: the “AGONIST OR ANTAGONIST” value in the test with MU RECEPTOR is “Agonist”.
